{
  "source": "paper PMC9844538",
  "about": "(Nature chemical biology, 2022)",
  "key": {"[1]": {"tested_on": "Mycobacterium tuberculosis H37Rv mc^26020", "test": "MIC, broth microdilution", "format": "cell-based", "details": "bleomycin susceptibility, value before the MIC shift"}, "MtbGyrase": {"target": "MtbGyrase (Mycobacterium tuberculosis, UniProt P9WG45+P9WG47)", "sequence (P9WG45 whole entry, looked up)": "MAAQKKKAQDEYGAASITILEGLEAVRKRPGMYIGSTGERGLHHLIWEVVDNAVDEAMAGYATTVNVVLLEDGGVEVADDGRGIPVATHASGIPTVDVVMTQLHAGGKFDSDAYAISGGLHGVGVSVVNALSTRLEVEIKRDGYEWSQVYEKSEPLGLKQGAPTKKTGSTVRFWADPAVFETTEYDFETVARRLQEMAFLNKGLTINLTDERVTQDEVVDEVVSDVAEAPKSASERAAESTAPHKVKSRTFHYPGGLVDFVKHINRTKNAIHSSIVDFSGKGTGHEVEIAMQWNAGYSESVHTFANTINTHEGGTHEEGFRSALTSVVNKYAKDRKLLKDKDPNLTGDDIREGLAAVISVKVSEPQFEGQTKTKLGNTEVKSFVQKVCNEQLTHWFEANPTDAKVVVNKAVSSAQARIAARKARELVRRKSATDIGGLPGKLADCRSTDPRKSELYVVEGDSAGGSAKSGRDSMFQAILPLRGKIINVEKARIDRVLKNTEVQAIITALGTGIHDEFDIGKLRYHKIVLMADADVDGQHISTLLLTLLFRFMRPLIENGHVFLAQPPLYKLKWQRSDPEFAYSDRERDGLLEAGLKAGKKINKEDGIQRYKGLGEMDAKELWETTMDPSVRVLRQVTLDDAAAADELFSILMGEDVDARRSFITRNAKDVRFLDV", "sequence (P9WG47 whole entry, looked up)": "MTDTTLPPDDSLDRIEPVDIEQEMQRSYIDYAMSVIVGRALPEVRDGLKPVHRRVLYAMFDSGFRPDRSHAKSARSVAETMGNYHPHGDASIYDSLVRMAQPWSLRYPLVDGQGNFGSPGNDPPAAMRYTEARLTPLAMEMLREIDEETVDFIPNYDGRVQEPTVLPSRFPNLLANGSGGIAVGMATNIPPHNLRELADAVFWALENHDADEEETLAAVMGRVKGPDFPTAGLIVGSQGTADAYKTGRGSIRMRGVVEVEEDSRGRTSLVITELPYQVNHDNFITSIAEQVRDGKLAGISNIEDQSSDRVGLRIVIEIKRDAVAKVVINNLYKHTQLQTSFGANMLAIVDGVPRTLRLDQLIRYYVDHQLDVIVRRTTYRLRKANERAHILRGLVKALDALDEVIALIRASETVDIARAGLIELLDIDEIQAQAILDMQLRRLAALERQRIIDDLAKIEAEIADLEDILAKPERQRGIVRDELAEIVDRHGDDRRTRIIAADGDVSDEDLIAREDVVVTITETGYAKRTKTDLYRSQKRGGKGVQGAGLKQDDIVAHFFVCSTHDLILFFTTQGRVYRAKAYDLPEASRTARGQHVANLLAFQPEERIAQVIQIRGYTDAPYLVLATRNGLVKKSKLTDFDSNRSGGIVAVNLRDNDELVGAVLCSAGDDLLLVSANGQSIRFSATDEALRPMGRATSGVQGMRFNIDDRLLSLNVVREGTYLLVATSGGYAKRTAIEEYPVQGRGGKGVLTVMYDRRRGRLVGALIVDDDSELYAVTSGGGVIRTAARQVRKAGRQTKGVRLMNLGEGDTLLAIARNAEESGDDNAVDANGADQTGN", "format": "biochemical"}, "[2]": {"tested_on": "commensal bacteria, including Lactobacillus sp. and Bacteroides sp.", "test": "Activity against commensal bacteria", "format": "cell-based"}, "M. tuberculosis": {"tested_on": "M. tuberculosis", "test": "Cell elongation, microscopy", "format": "cell-based, Mycobacterium tuberculosis"}, "E. coli WO153": {"tested_on": "E. coli WO153", "test": "Macromolecule incorporation assay", "format": "cell-based, Escherichia coli", "details": "8x MIC of evybactin"}, "E. coli gyrase": {"target": "E. coli gyrase (Escherichia coli, UniProt P0AES4+P0AES6)", "sequence (P0AES4 whole entry, one chain of several)": "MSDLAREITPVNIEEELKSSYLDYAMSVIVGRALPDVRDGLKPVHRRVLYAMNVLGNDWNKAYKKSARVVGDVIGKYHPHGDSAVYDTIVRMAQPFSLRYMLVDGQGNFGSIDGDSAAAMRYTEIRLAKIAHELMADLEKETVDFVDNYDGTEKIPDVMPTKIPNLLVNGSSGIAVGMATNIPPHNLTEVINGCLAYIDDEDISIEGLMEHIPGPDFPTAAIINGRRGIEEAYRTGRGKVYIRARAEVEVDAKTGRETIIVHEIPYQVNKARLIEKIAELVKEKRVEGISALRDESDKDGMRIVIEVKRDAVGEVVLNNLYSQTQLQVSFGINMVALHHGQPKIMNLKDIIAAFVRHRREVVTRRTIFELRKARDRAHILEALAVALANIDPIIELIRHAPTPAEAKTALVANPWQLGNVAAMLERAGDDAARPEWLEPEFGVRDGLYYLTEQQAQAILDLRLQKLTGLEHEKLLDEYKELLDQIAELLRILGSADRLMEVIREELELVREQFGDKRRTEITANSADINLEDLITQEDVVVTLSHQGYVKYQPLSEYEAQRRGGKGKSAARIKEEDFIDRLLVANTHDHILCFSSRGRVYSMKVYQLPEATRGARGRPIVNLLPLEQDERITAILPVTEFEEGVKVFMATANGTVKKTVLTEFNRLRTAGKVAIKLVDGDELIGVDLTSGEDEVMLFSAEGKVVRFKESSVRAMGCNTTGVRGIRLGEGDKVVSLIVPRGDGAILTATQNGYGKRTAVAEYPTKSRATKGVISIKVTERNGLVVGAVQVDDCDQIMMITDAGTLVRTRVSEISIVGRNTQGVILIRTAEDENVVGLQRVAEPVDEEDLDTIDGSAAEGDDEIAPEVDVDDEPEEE", "test": "Supercoiling assay", "format": "biochemical", "details": "100 μM evybactin, 0–20 nM enzyme, strong cleavage visible at 5 nM enzyme"}, "[3]": {"tested_on": "M. tuberculosis H37Rv mc^26020", "test": "Vitamin B12 competition assay", "format": "cell-based, Mycobacterium tuberculosis", "details": "1,000-fold molar excess of vitamin B12, 7 days, 37 °C"}, "mouse": {"tested_on": "mouse", "test": "Toxicity in a mouse", "format": "in vivo", "details": "intraperitoneally, 100 mg kg^−1, survival observed for 24 hours"}, "[4]": {"target": "T1, M. tuberculosis gyrase (MtbGyrase) (Mycobacterium tuberculosis, UniProt P9WG45+P9WG47)", "T1 sequence (P9WG45 whole entry, looked up)": "as the sequence (P9WG45 whole entry, looked up) above", "T1 sequence (P9WG47 whole entry, looked up)": "as the sequence (P9WG47 whole entry, looked up) above", "format": "biochemical", "details": "no ATP"}, "[5]": {"target": "T1, M. tuberculosis gyrase (MtbGyrase)", "test": "Supercoiling assay", "format": "biochemical"}, "[6]": {"tested_on": "M. tuberculosis H37Rv mc^26020", "test": "Time-dependent killing", "format": "cell-based, Mycobacterium tuberculosis"}, "E. coli topo IV": {"target": "E. coli topo IV (Escherichia coli, UniProt P0AFI2+P20083)", "test": "Supercoil relaxation assay", "format": "biochemical", "details": "100 μM evybactin, 0–20 nM enzyme"}},
  "note": "Starred links: 1 amine or outer side, 2 acyl side, 3 side chain; linkers in the order of their positions; H or OH if unused. Positions of bridges follow the written chain, without caps; N, C: chain ends. Non-standard residues stand in square brackets, D forms with d. Residues, ends and D or L forms follow the SMILES beside them. *: point of attachment. βAsp = O=C(O)[C@H](CC(=O)[*:2])N[*:1]; His(π-Me) = Cn1cncc1C[C@H](N)C(=O)O; For = O=C*",
  "data": [
    {"molecule": "bleomycin", "values": [
      {"measurement": "MIC (before shift)", "setting": "[1]", "value": 0.06, "unit": "µg/mL"}
    ]},
    {"molecule": "COc1c(N2C[C@@H]3CCCN[C@@H]3C2)c(F)cc2c(=O)c(C(=O)O)cn(C3CC3)c12", "note": "[moxifloxacin]", "values": [
      {"measurement": "ATPase rate (Vmax)", "setting": "MtbGyrase", "value": "0.4 ± 0.1 molecules of ATP per second per enzyme"}
    ]},
    {"molecule": "C[C@@H](O)[C@H](NC(=O)[C@H](Cc1c[nH]c2ccccc12)NC=O)C(=O)N[C@H](CCCNC(=N)N)C(=O)N[C@@H]1C(=O)N[C@@H](Cc2cncn2C)C(=O)N[C@H](C(=O)O)CC(=O)N[C@H](CO)C(=O)N[C@@H](Cc2ccccc2)C(=O)NCC(=O)N[C@H](CCCNC(=N)N)C(=O)N[C@@H](CO)C(=O)N[C@H](C(=O)O)CC(=O)O[C@@H]1C", "note": "[evybactin] (For-WT[dR]T[His(π-Me)][βAsp][dS]FG[dR]S[βAsp]; ester 4-C)", "values": [
      {"measurement": "activity against commensal bacteria", "setting": "[2]", "value": "no activity"},
      {"measurement": "toxicity against human cells", "setting": "FaDu", "value": "no toxicity"},
      {"measurement": "cell length versus non-treated cells", "setting": "M. tuberculosis", "value": "approximately two times longer"},
      {"measurement": "DNA synthesis (^14C-thymidine incorporation)", "setting": "E. coli WO153", "value": "inhibits DNA synthesis"},
      {"measurement": "RNA, protein and fatty acid synthesis (label incorporation)", "setting": "E. coli WO153", "value": "less of an effect"},
      {"measurement": "DNA cleavage", "setting": "E. coli gyrase", "value": "stimulated DNA cleavage"},
      {"measurement": "effect of vitamin B12 on evybactin susceptibility", "setting": "[3]", "value": "no change in the susceptibility"},
      {"measurement": "toxicity, survival", "setting": "mouse", "value": "no indications of toxicity"},
      {"measurement": "DNA cleavage in the absence of ATP", "setting": "[4]", "value": "little to no cleavage"},
      {"measurement": "toxicity against human cells", "setting": "HepG2", "value": "no toxicity"},
      {"measurement": "supercoiling activity and DNA cleavage", "setting": "[5]", "value": "inhibited the supercoiling activity"},
      {"measurement": "killing ability", "setting": "[6]", "value": "highly bactericidal"},
      {"measurement": "DNA cleavage", "setting": "E. coli topo IV", "value": "stimulated DNA cleavage"},
      {"measurement": "toxicity against human cells", "setting": "HEK293", "value": "no toxicity"},
      {"measurement": "solubility", "setting": "Solubility in water", "value": "> 40", "unit": "mg/mL"}
    ]}
  ]
}
